Source: patent US11986452B2, “Methods of reducing the risk of heart failure” (Amarin Pharmaceuticals Ireland Limited, priority 2021, dated 2024)

Assays:
[1] = test system: statin-treated patients with elevated triglycerides; assay: Example 3: total (first and subsequent) ischemic events analysis (negative binomial, modified Wei-Lin-Weissfeld, Andersen-Gill, joint frailty); format: in vivo, human; conditions: for Adjusted HR, total events / Unadjusted HR, total events / Adjusted HR, first event / Adjusted HR, second event / Adjusted HR, third event / Unadjusted HR, first event / Unadjusted HR, second event / Unadjusted HR, third event / Adjusted RR, total events / Unadjusted RR, total events / HR, Cardiovascular Death / HR, Non-fatal Cardiovascular Event: vs placebo; for Adjusted HR, first event / Adjusted HR, second event / Adjusted HR, third event / Unadjusted HR, first event / Unadjusted HR, second event / Unadjusted HR, third event: modified WLW; for HR, Cardiovascular Death / HR, Non-fatal Cardiovascular Event: joint frailty model; for Fatal events, %: after reduction
Description: The following study was a multi-center, placebo-controlled clinical trial the details of which are described above in Example 1, the REDUCE-IT design. […] The main outcomes were total primary composite endpoint events defined as cardiovascular death, nonfatal myocardial infarction, nonfatal stroke, coronary revascularization, or hospitalization for unstable angina and total key secondary composite endpoint events defined as cardiovascular death, nonfatal myocardial infarction, or nonfatal stroke. In the context of this study, total events refer to any first event as well as any subsequent event. Differences in total events were determined using other statistical models, including Andersen-Gill, Wei-Lin-Weissfeld (Li and Lagakos), both pre-specified, and a post hoc and joint-frailty analysis.
For the present prespecified analysis, the primary outcome was the total of first plus subsequent ischemic events consisting of the composite of cardiovascular death, nonfatal myocardial infarction, nonfatal stroke, coronary revascularization, or hospitalization for unstable angina. […] Exploratory analyses of the total of first and subsequent events were also performed for the key secondary composite endpoint.
Baseline characteristics were compared between treatment groups using the chi-squared test for categorical variables and the Wilcoxon rank sum test for continuous variables. There are several methods for analyzing first and subsequent (recurrent) event data. As a pre-specified statistical method, a negative binomial regression was used to calculate rates and rate ratios for total cardiovascular events, which accounts for the variability in each patient's risk of events. As pre-specified supportive analyses, the modified Wei-Lin-Weissfeld method (Li and Lagakos modification) was used to calculate hazard ratios (HRs) for the time to the first event, second event, or third event. An additional pre-specified analysis, the Andersen-Gill model using a Cox proportional-hazard with the counting-process formulation was performed to model the total events. In addition, in order to account for informative censoring due to cardiovascular death, the HR for total non-fatal events was calculated using a joint frailty model (See Rondeau V. Joint frailty models for recurring events and death using maximum penalized likelihood estimation: application on cancer events. Biostatistics. 2007; 8:708-21). The joint frailty model simultaneously estimates hazard functions for non-fatal and fatal CV events and takes into account the fact that patients who are prone to have nonfatal events have an elevated risk of a cardiovascular death. The application of the joint frailty model used a gamma distribution for the frailty term.
Statistical analyses using the full adjudicated endpoint events dataset without exclusions using this bundling approach were also determined.

[2] = test system: statin-treated patients in the icosapent ethyl group; assay: Example 5: new heart failure by on-treatment EPA tertile (post hoc); format: in vivo, human; conditions: for New heart failure requiring hospitalization: HR vs lowest on treatment EPA tertile / New heart failure: HR vs lowest on treatment EPA tertile: post hoc, icosapent ethyl group only
Description: The mechanical or surgical intervention including mechanical circulatory support (e.g., intra-aortic balloon pump, ventricular assist device) and/or mechanical fluid removal (e.g., ultrafiltration, hemofiltration, dialysis).
New Heart Failure/Heart Failure Not Requiring Hospitalization: is defined as an event that meets all of the following: the patient has an urgent, unscheduled office/practice or emergency department visit for a primary diagnosis of HF, but not meeting the criteria for a HF hospitalization; all signs and symptoms for HF hospitalization must be met as defined in A Heart Failure Hospitalization above; and the patient receives initiation or intensification of treatment specifically for HF, as detailed in the above section with the exception of oral diuretic therapy, which was not sufficient.
The study design was the same as that described above in Example 1 related to the REDUCE-IT clinical trial.
Prespecified tertiary endpoints of NHF (HR=0.95; 95% CI, 0.77-1.17; p=0.63) and NHF requiring hospitalization (HR=0.97; 0.77-1.22; p=0.78) from the REDUCE-IT clinical trial were not significant.

[3] = key secondary composite endpoint, Andersen-Gill (I), full dataset
[4] = key secondary composite endpoint, Andersen-Gill (I), reduced dataset
[5] = key secondary composite endpoint, Andersen-Gill (II), full dataset
[6] = key secondary composite endpoint, Andersen-Gill (II), reduced dataset
[7] = key secondary composite endpoint, full dataset
[8] = key secondary composite endpoint, reduced dataset
[9] = key secondary composite endpoint, negative binomial, full dataset
[10] = key secondary composite endpoint, negative binomial, reduced dataset
[11] = key secondary endpoint, adjusted, reduced dataset
[12] = key secondary endpoint, unadjusted, reduced dataset
[13] = primary composite endpoint, Andersen-Gill (I), full dataset
[14] = primary composite endpoint, Andersen-Gill (I), reduced dataset
[15] = primary composite endpoint, Andersen-Gill (II), full dataset
[16] = primary composite endpoint, Andersen-Gill (II), reduced dataset
[17] = primary composite endpoint, full dataset
[18] = primary composite endpoint, reduced dataset
[19] = primary composite endpoint, negative binomial, full dataset
[20] = primary composite endpoint, negative binomial, reduced dataset
[21] = primary endpoint, adjusted, reduced dataset
[22] = primary endpoint, unadjusted, reduced dataset

CC/C=C\C/C=C\C/C=C\C/C=C\C/C=C\CCCC(=O)OCC [icosapent ethyl, eicosapentaenoic acid ethyl ester]
Total (first and subsequent) ischemic events for the primary composite endpoint: relative risk reduction ([1]; in vivo): 30%
Adjusted HR, total events [1, 3]: 0.71
Unadjusted HR, total events [1, 3]: 0.71
Adjusted HR, total events [1, 4]: 0.72
Unadjusted HR, total events [1, 4]: 0.72
Adjusted HR, total events [1, 5]: 0.71
Unadjusted HR, total events [1, 5]: 0.71
Adjusted HR, total events [1, 6]: 0.72
Unadjusted HR, total events [1, 6]: 0.72
Adjusted HR, first event [1, 7]: 0.74
Adjusted HR, second event [1, 7]: 0.75
Adjusted HR, third event [1, 7]: 0.79
Unadjusted HR, first event [1, 7]: 0.74
Unadjusted HR, second event [1, 7]: 0.75
Unadjusted HR, third event [1, 7]: 0.79
Adjusted HR, first event [1, 8]: 0.74
Adjusted HR, second event [1, 8]: 0.75
Adjusted HR, third event [1, 8]: 0.79
Unadjusted HR, first event [1, 8]: 0.74
Unadjusted HR, second event [1, 8]: 0.75
Unadjusted HR, third event [1, 8]: 0.79
Adjusted RR, total events [1, 9]: 0.71
Unadjusted RR, total events [1, 9]: 0.71
Adjusted RR, total events [1, 10]: 0.72
Unadjusted RR, total events [1, 10]: 0.71
HR, Cardiovascular Death [1, 11]: 0.79
HR, Non-fatal Cardiovascular Event [1, 11]: 0.68
Fatal events, % ([1]; key secondary endpoint): 45.0%
Total events before reduction, % ([1]; key secondary endpoint, share of overall events): 42.0%
HR, Cardiovascular Death [1, 12]: 0.79
HR, Non-fatal Cardiovascular Event [1, 12]: 0.68
Total key secondary endpoint events: RR vs placebo ([1]; negative binomial): 0.72
Adjusted HR, total events [1, 13]: 0.68
Unadjusted HR, total events [1, 13]: 0.68
Adjusted HR, total events [1, 14]: 0.69
Unadjusted HR, total events [1, 14]: 0.69
Adjusted HR, total events [1, 15]: 0.68
Unadjusted HR, total events [1, 15]: 0.68
Adjusted HR, total events [1, 16]: 0.69
Unadjusted HR, total events [1, 16]: 0.69
Adjusted HR, first event [1, 17]: 0.75
Adjusted HR, second event [1, 17]: 0.68
Adjusted HR, third event [1, 17]: 0.70
Unadjusted HR, first event [1, 17]: 0.76
Unadjusted HR, second event [1, 17]: 0.69
Unadjusted HR, third event [1, 17]: 0.70
Adjusted HR, first event [1, 18]: 0.75
Adjusted HR, second event [1, 18]: 0.68
Adjusted HR, third event [1, 18]: 0.69
Unadjusted HR, first event [1, 18]: 0.76
Unadjusted HR, second event [1, 18]: 0.69
Unadjusted HR, third event [1, 18]: 0.69
Adjusted RR, total events [1, 19]: 0.69
Unadjusted RR, total events [1, 19]: 0.67
Adjusted RR, total events [1, 20]: 0.70
Unadjusted RR, total events [1, 20]: 0.68
HR, Cardiovascular Death [1, 21]: 0.80
HR, Non-fatal Cardiovascular Event [1, 21]: 0.67
Fatal events, % ([1]; primary endpoint): 45.0%
Total events after reduction, % ([1]; primary endpoint, multiple endpoints in a single calendar day handled as a single event): 41.0%
HR, Cardiovascular Death [1, 22]: 0.80
HR, Non-fatal Cardiovascular Event [1, 22]: 0.66
Achieved EPA level with statistically and clinically meaningful risk reductions in NHF ([2]; EPA tertile analyses within icosapent ethyl group): above 104 μg/mL
New heart failure requiring hospitalization: HR vs lowest on treatment EPA tertile ([2]; middle EPA tertile): 0.47
New heart failure: HR vs lowest on treatment EPA tertile ([2]; middle EPA tertile): 0.55
New heart failure requiring hospitalization: HR vs lowest on treatment EPA tertile ([2]; upper EPA tertile): 0.45
New heart failure: HR vs lowest on treatment EPA tertile ([2]; upper EPA tertile): 0.41
